In US7582645B2, “Pyrimidine derivatives for treatment of hyperproliferative disorders” (Bayer Pharmaceuticals Corporation, priority 2003, dated 2009):
pIC50: −log10 of the molar value. Counter-ions that a name gives are not always drawn.

tested on: HCT116 cells; test: HCT116 cytotoxic activity assay (Alamar Blue, 72 h); assay type: cell-based; conditions: Homo sapiens, HCT-116, 72 h compound exposure, greater than 500 nM but less than or equal to 2 μM
Protocol: Representative compounds of this invention were tested for cytotoxicity using the above-described assay procedure with the following results: […]

SMILES | pIC50
Nc1nc(Nc2cccc(Oc3ccnc(N4CCC[C@H]4CO)c3)c2)cc(-c2ccccc2)n1 [Example 128, [(2S)-1-(4-{3-[(2-amino-6-phenylpyrimidin-4-yl)amino]phenoxy}pyridin-2-yl)pyrrolidin-2-yl]methanol] | 5.70 to 6.30
CN1CCN(c2cc(Oc3cccc(Nc4cc(-c5ccccc5)nc(N)n4)c3)ccn2)CC1 [Example 130, N4*-(3-{[2-(4-methylpiperazin-1-yl)pyridin-4-yl]oxy}phenyl)-6-phenylpyrimidine-2,4-diamine] | 5.70 to 6.30
Nc1nc(Nc2ccc(Oc3ccnc(N(N)Cc4ccccc4)c3)cc2)cc(-c2ccccc2)n1 [Example 131, N4*-(4-{[2-(1-benzylhydrazino)pyridin-4-yl]oxy}phenyl)-6-phenylpyrimidine-2,4-diamine] | 5.70 to 6.30
CN1CCN(c2cc(Oc3ccc(Nc4cc(-c5ccccc5)nc(N)n4)cc3)ccn2)CC1 [Example 135, N4*-(4-{[2-(4-methylpiperazin-1-yl)pyridin-4-yl]oxy}phenyl)-6-phenylpyrimidine-2,4-diamine] | 5.70 to 6.30
COCCN1CCN(c2cc(Oc3ccc(Nc4cc(-c5ccccc5)nc(N)n4)cc3)ccn2)CC1 [Example 136, N4*-[4-({2-[4-(2-methoxyethyl)piperazin-1-yl]pyridin-4-yl}oxy)phenyl]-6-phenylpyrimidine-2,4-diamine] | 5.70 to 6.30
CN(C)CCNc1cc(Oc2ccc(Nc3cc(-c4ccccc4)nc(N)n3)cc2)ccn1 [Example 138, N4*-{4-[(2-{[2-(dimethylamino)ethyl]amino}pyridin-4-yl)oxy]phenyl}-6-phenylpyrimidine-2,4-diamine] | 5.70 to 6.30
CCN(CC)CCCNc1cc(Oc2ccc(Nc3cc(-c4ccccc4)nc(N)n3)cc2)ccn1 [Example 141, N4*-{4-[(2-{[3-(diethylamino)propyl]amino}pyridin-4-yl)oxy]phenyl}-6-phenylpyrimidine-2,4-diamine] | 5.70 to 6.30
CN(C)[C@H]1CCN(c2cc(Oc3ccc(Nc4cc(-c5ccccc5)nc(N)n4)cc3)ccn2)C1 [Example 144, N4*-[4-({2-[(3S)-3-(dimethylamino)pyrrolidin-1-yl]pyridin-4-yl}oxy)phenyl]-6-phenylpyrimidine-2,4-diamine] | 5.70 to 6.30
Nc1nc(Nc2ccc(Oc3ccnc(C(F)(F)F)c3)cc2)cc(-c2ccc(NC(=O)CCC(=O)O)cc2)n1 [Example 148, 4-[(4-{2-amino-6-[(4-{[2-(trifluoromethyl)pyridin-4-yl]oxy}phenyl)amino]pyrimidin-4-yl}phenyl)amino]-4-oxobutanoic acid] | 5.70 to 6.30

same assay, conditions: Homo sapiens, HCT-116, 72 h compound exposure, greater than 2 μM

SMILES | pIC50
COC[C@@H]1CCCN1c1cc(Oc2cccc(Nc3cc(-c4ccccc4)nc(N)n3)c2)ccn1 [Example 122, N4*-[3-({2-[2-(methoxymethyl)pyrrolidin-1-yl]pyridin-4-yl}oxy)phenyl]-6-phenylpyrimidine-2,4-diamine] | < 5.70
COCCN(CCOC)c1cc(Oc2cccc(Nc3cc(-c4ccccc4)nc(N)n3)c2)ccn1 [Example 126, N4*-[3-({2-[bis(2-methoxyethyl)amino]pyridin-4-yl}oxy)phenyl]-6-phenylpyrimidine-2,4-diamine] | < 5.70
COC[C@H]1CCCN1c1cc(Oc2cccc(Nc3cc(-c4ccccc4)nc(N)n3)c2)ccn1 [Example 147, N4*-[3-({2-[(2R)-2-(methoxymethyl)pyrrolidin-1-yl]pyridin-4-yl}oxy)phenyl]-6-phenylpyrimidine-2,4-diamine] | < 5.70

same assay, conditions: Homo sapiens, HCT-116, 72 h compound exposure, less than or equal to 500 nM

SMILES | pIC50
Nc1ccc(-c2cc(Nc3ccc(Oc4ccnc(Cl)c4)cc3)nc(N)n2)cc1 [Example 116, 6-(4-aminophenyl)-N4*- {4-[(2-chloropyridin-4-yl)oxy]phenyl}pyrimidine-2,4-diamine] | ≥ 6.30
Nc1nc(Nc2ccc(Oc3ccnc(Cl)c3)c(F)c2)cc(-c2ccccc2)n1 [Example 117, N4*-{4-[(2-chloropyridin-4-yl)oxy]-3-fluorophenyl}-6-phenylpyrimidine-2,4-diamine] | ≥ 6.30
Nc1cccc(-c2cc(Nc3ccc(Oc4ccnc(Cl)c4)cc3)nc(N)n2)c1 [Example 118, 6-(3-aminophenyl)-N4*-{4-[(2-chloropyridin-4-yl)oxy]phenyl}pyrimidine-2,4-diamine] | ≥ 6.30
Nc1nc(Nc2cccc(Oc3ccnc(N4CCCCC4)c3)c2)cc(-c2ccccc2)n1 [Example 119, 6-phenyl-N4*-{3-[(2-piperidin-1-ylpyridin-4-yl)oxy]phenyl}pyrimidine-2,4-diamine] | ≥ 6.30
Nc1nc(Nc2cccc(Oc3ccnc(N4CCOCC4)c3)c2)cc(-c2ccccc2)n1 [Example 120, N4*-{3-[(2-morpholin-4-ylpyridin-4-yl)oxy]phenyl}-6-phenylpyrimidine-2,4-diamine] | ≥ 6.30
Nc1nc(Nc2cccc(Oc3ccnc(N4CCCC4)c3)c2)cc(-c2ccccc2)n1 [Example 121, 6-phenyl-N4*-{3-[(2-pyrrolidin-1-ylpyridin-4-yl)oxy]phenyl}pyrimidine-2,4-diamine] | ≥ 6.30
Nc1nc(Nc2cccc(Oc3ccnc(N4CCC[C@@H]4CO)c3)c2)cc(-c2ccccc2)n1 [Example 123, [(2R)-1-(4-{3-[(2-amino-6-phenylpyrimidin-4-yl)amino]phenoxy}pyridin-2-yl)pyrrolidin-2-yl]methanol] | ≥ 6.30
COCCN(C)c1cc(Oc2cccc(Nc3cc(-c4ccccc4)nc(N)n3)c2)ccn1 [Example 124, N4*-[3-({2-[(2-methoxyethyl)(methyl)amino]pyridin-4-yl}oxy)phenyl]-6-phenylpyrimidine-2,4-diamine] | ≥ 6.30
CC1CCCN1c1cc(Oc2cccc(Nc3cc(-c4ccccc4)nc(N)n3)c2)ccn1 (stereo not drawn) [Example 125, N4*-(3-{[2-(2-methylpyrrolidin-1-yl)pyridin-4-yl]oxy}phenyl)-6-phenylpyrimidine-2,4-diamine] | ≥ 6.30
Nc1nc(Nc2cccc(Oc3ccnc(N(CCO)CCO)c3)c2)cc(-c2ccccc2)n1 [Example 127, 2,2′-[(4-{3-[(2-amino-6-phenylpyrimidin-4-yl)amino]phenoxy}pyridin-2-yl)imino]diethanol] | ≥ 6.30
Nc1nc(Nc2ccc(Oc3ccnc(N(CCO)CCO)c3)cc2)cc(-c2ccccc2)n1 [Example 129, 2,2′-[(4-{4-[(2-amino-6-phenylpyrimidin-4-yl)amino]phenoxy}pyridin-2-yl)imino]diethanol] | ≥ 6.30
COC[C@H]1CCCN1c1cc(Oc2ccc(Nc3cc(-c4ccccc4)nc(N)n3)cc2)ccn1 [Example 133, N4*-[4-({2-[(2R)-2-(methoxymethyl)pyrrolidin-1-yl]pyridin-4-yl}oxy)phenyl]-6-phenylpyrimidine-2,4-diamine] | ≥ 6.30
Nc1nc(Nc2ccc(Oc3ccnc(N4CCOCC4)c3)cc2)cc(-c2ccccc2)n1 [Example 134, N4*-{4-[(2-morpholin-4-ylpyridin-4-yl)oxy]phenyl}-6-phenylpyrimidine-2,4-diamine] | ≥ 6.30
COCCN(C)c1cc(Oc2ccc(Nc3cc(-c4ccccc4)nc(N)n3)cc2)ccn1 [Example 137, N4*-[4-({2-[(2-methoxyethyl)(methyl)amino]pyridin-4-yl}oxy)phenyl]-6-phenylpyrimidine-2,4-diamine] | ≥ 6.30
Nc1nc(Nc2ccc(Oc3ccnc(N4CCCCC4)c3)cc2)cc(-c2ccccc2)n1 [Example 139, 6-phenyl-N4*-{4-[(2-piperidin-1-ylpyridin-4-yl)oxy]phenyl}pyrimidine-2,4-diamine] | ≥ 6.30
COCCN(CCOC)c1cc(Oc2ccc(Nc3cc(-c4ccccc4)nc(N)n3)cc2)ccn1 [Example 140, N4*-[4-({2-[bis(2-methoxyethyl)amino]pyridin-4-yl}oxy)phenyl]-6-phenylpyrimidine-2,4-diamine] | ≥ 6.30
Nc1nc(Nc2ccc(Oc3ccnc(NCCCN4CCOCC4)c3)cc2)cc(-c2ccccc2)n1 [Example 142, N4*-[4-({2-[(3-morpholin-4-ylpropyl)amino]pyridin-4-yl}oxy)phenyl]-6-phenylpyrimidine-2,4-diamine] | ≥ 6.30
COc1cc(-c2cc(Nc3ccc(Oc4ccnc(N5CCOCC5)c4)cc3)nc(N)n2)ccc1O [Example 143, 4-[2-amino-6-({4-[(2-morpholin-4-ylpyridin-4-yl)oxy]phenyl}amino)pyrimidin-4-yl]-2-methoxyphenol] | ≥ 6.30
Nc1nc(Nc2ccc(Oc3ccnc(N4CCC[C@H]4CO)c3)cc2)cc(-c2ccccc2)n1 [Example 145, [(2S)-1-(4-{4-[(2-amino-6-phenylpyrimidin-4-yl)amino]phenoxy}pyridin-2-yl)pyrrolidin-2-yl]methanol] | ≥ 6.30
Nc1nc(Nc2ccc(Oc3ccnc(N4CC[C@@H](O)C4)c3)cc2)cc(-c2ccccc2)n1 [Example 146, (3R)-1-(4-{4-[(2-amino-6-phenylpyrimidin-4-yl)amino]phenoxy}pyridin-2-yl)pyrrolidin-3-ol] | ≥ 6.30
COc1cc(-c2cc(Nc3ccc(Oc4ccnc(C(F)(F)F)c4)cc3)nc(N)n2)ccc1OC(=O)CNC(=O)OC(C)(C)C [Example 149, 4-{2-amino-6-[(4-{[2-(trifluoromethyl)pyridin-4-yl]oxy}phenyl)amino]pyrimidin-4-yl}-2-methoxyphenyl N-(tert-butoxycarbonyl)glycinate] | ≥ 6.30
COc1cc(-c2cc(Nc3ccc(Oc4ccnc(C(F)(F)F)c4)cc3)nc(N)n2)ccc1OC(=O)CN [Example 150, 4-{2-amino-6-[(4-{[2-(trifluoromethyl)pyridin-4-yl]oxy}phenyl)amino]pyrimidin-4-yl}-2-methoxyphenyl glycinate hydrochloride] | ≥ 6.30
COc1cc(-c2cc(Nc3ccc(Oc4ccnc(C(F)(F)F)c4)cc3)nc(N)n2)ccc1N [Example 153, 6-(4-amino-3-methoxyphenyl)-N4*-(4-{[2-(trifluoromethyl)pyridin-4-yl]oxy}phenyl) pyrimidine-2,4-diamine] | ≥ 6.30
Cc1ccccc1-c1cc(Nc2ccc(Oc3ccnc(CN)c3)cc2)nc(N)n1 [Example 154, N4*-(4-{[2-(aminomethyl)pyridin-4-yl]oxy}phenyl)-6-(2-methylphenyl) pyrimidine-2,4-diamine] | ≥ 6.30
